Laboratory results taken from PubChem BioAssay (NCI).
Where “and” joins values, the source holds several entries; their conditions need not be identical. Equal values may be shown once.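 Values below derive from 48-hour exposures of cells grown in 96-well plates, with endpoints linearly interpolated between the two concentrations bracketing the appropriate inhibition level. GI50: concentration for 50% inhibition of growth. TGI is the concentration that stops growth completely.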 Where a SMILES comes first, the peptide text is derived from it. The star is where a group is joined. Cbz = O=C(OCc1ccccc1)*

system: COLO 205 colon; assay: DTP human tumour cell line panel, 48 h

Going from O=c1[nH]c2nc3ccccc3c(=O)n2/c1=C/c1cccs1 to Cc1c2ccc3ccccc3c2c[n+]2ccccc12, the TGI falls from greater than 100 µM to 16.5 µM.

First: O=C1c2c(Br)sc(Br)c2C(=O)C1(O)O
Second: CC(=O)c1ccc2c(c1)C(=O)c1sc(C(C)=O)cc1C2=O
The TGI of the first is 6.4-fold higher: 50.7 µM for the first, 7.94 µM for the second.

O=C1CCSCCC(=O)Nc2ccccc2N1 and Cc1ccc2c(c1)CC1(Cc3cccc(C)c3C1=O)C2=O (centres undefined) cannot be ordered by TGI: greater than 100 µM for the first, greater than 100 µM for the second.

Compared with CC(=O)SC(C[N+](=O)[O-])c1ccc2c(c1)OCO2 (centres undefined), COc1ccc(C2c3cc4c(cc3OC(N3CCOCC3)C2C)OCO4)cc1 (centres undefined) is higher in TGI: 36.9 µM for the first, greater than 100 µM for the second.

Cc1ccc(CSC(N)=Nc2ccccc2)cc1C and CCOC(=O)CCC(NC(=O)C(Cc1ccccc1)NC(=O)OCc1ccccc1)C(=O)OCC (stereo not drawn) (Cbz-Phe-Glu(OEt)-OEt; configuration not given here) are within 1.5-fold of each other in TGI: 41.5 µM for the first, 35.3 µM for the second.

C=C1CCCCCCCCC/C=C/1SCCCSC and CCOC(=O)CCC1(CCC(=O)OCC)CCCCCCCCC(CCC(=O)OCC)(CCC(=O)OCC)C(=O)C1=O cannot be ordered by TGI: greater than 100 µM for the first, greater than 100 µM for the second.

Compared with CCOc1cc(NC(C)=O)ccc1C(=O)NNS(=O)(=O)c1ccc(NC(C)=O)cc1, CC(=O)OC(CCC1(C)OC1COc1ccc(CCNC(=O)C=C(C)C)cc1)C(C)(C)OC(C)=O (centres undefined) is higher in TGI: 76.2 µM for the first, greater than 92.1 µM for the second.

Compared with NCCCN(CCCN)CCc1cn(C(=O)c2ccccc2)cn1, O=[N+]([O-])c1c(F)c(F)c2c(c1F)N(CCCCCl)c1ccccc1S2 is 2.9-fold higher in TGI: 9.58 µM for the first, 27.5 µM for the second.

First: CC1(C)O[C@H]2OC(CO)C(N=[N+]=[N-])[C@H]2O1 (some centres undefined)
Second: Cc1ccnc2c1C(=O)C1=C(OC(C)(C)CC1O)C2=O (centres undefined)
The TGI of the first is higher: greater than 100 µM for the first, 6.52 µM for the second.

Going from O=C1C(Br)=CC2(C=C1Br)CCNC1=C2C(=O)c2ncccc2C1=O to O=C(Cn1c2ccc(Br)cc2c2nc3ccccc3nc21)NNC(=S)NC1CCCCC1, the TGI rises from 3.6 µM to 26 µM (7.2-fold).

Compared with CCCCC1Cc2cc(O)ccc2-c2nc3cc(O)ccc3n21 (centres undefined) (tested in a mixture with another compound), CC(=O)c1c(N=[N+]=[N-])c2cccc3c2n(c1=O)CCC3 is 1.5-fold higher in TGI: 29.7 µM for the first, 44.6 µM for the second.

First: CCCCCCCCCCCC(=O)OC[C@@H](C[As](=O)(O)O)OC(=O)CCCCCCCCCCC
Second: CC(=O)Nc1c(C(=N)C#N)ncn1CCO
The TGI of the first is lower: 36.6 µM for the first, greater than 100 µM for the second.

CN1CCc2c(sc3[nH]c(=S)[nH]c(=S)c23)C1 and CN1CCCOC(c2ccc(Cl)cc2)O1 (centres undefined) cannot be ordered by TGI: greater than 100 µM for the first, greater than 100 µM for the second.

With O=C1/C(=C\c2cccc(Oc3ccccc3)c2)S(=O)(=O)C(c2ccccc2)N1c1cccc(Cl)c1 (centres undefined) the TGI was greater than 100 µM.

system: EKVX NSCLC; assay: DTP human tumour cell line panel, 48 h

O=c1[nH]c2nc3ccccc3c(=O)n2/c1=C/c1cccs1 and Cc1c2ccc3ccccc3c2c[n+]2ccccc12 cannot be ordered by TGI: greater than 100 µM for the first, greater than 44.1 µM for the second.

O=C1c2c(Br)sc(Br)c2C(=O)C1(O)O and Cc1ccc2c(c1)CC1(Cc3cccc(C)c3C1=O)C2=O (centres undefined) cannot be ordered by TGI: greater than 100 µM for the first, greater than 100 µM for the second.

Compared with O=C1CCSCCC(=O)Nc2ccccc2N1, CC(=O)c1c(N=[N+]=[N-])c2cccc3c2n(c1=O)CCC3 is lower in TGI: greater than 100 µM for the first, 54.1 µM for the second.

Going from CC(=O)SC(C[N+](=O)[O-])c1ccc2c(c1)OCO2 (centres undefined) to COc1ccc(C2c3cc4c(cc3OC(N3CCOCC3)C2C)OCO4)cc1 (centres undefined), the TGI rises from 52.5 µM to greater than 100 µM.

Compared with Cc1ccc(CSC(N)=Nc2ccccc2)cc1C, CCOC(=O)CCC(NC(=O)C(Cc1ccccc1)NC(=O)OCc1ccccc1)C(=O)OCC (stereo not drawn) (Cbz-Phe-Glu(OEt)-OEt; configuration not given here) is 1.9-fold lower in TGI: 75.8 µM for the first, 39.1 µM for the second.

C=C1CCCCCCCCC/C=C/1SCCCSC and CCOC(=O)CCC1(CCC(=O)OCC)CCCCCCCCC(CCC(=O)OCC)(CCC(=O)OCC)C(=O)C1=O cannot be ordered by TGI: greater than 100 µM for the first, greater than 100 µM for the second.

CCOc1cc(NC(C)=O)ccc1C(=O)NNS(=O)(=O)c1ccc(NC(C)=O)cc1 and CC(=O)OC(CCC1(C)OC1COc1ccc(CCNC(=O)C=C(C)C)cc1)C(C)(C)OC(C)=O (centres undefined) cannot be ordered by TGI: greater than 100 µM for the first, greater than 100 µM for the second.

First: NCCCN(CCCN)CCc1cn(C(=O)c2ccccc2)cn1
Second: O=[N+]([O-])c1c(F)c(F)c2c(c1F)N(CCCCCl)c1ccccc1S2
The TGI of the first is 1.8-fold lower: 23.3 µM for the first, 41.3 µM for the second.

Going from CC1(C)O[C@H]2OC(CO)C(N=[N+]=[N-])[C@H]2O1 (some centres undefined) to Cc1ccnc2c1C(=O)C1=C(OC(C)(C)CC1O)C2=O (centres undefined), the TGI falls from greater than 100 µM to 18.5 µM.

First: O=C1C(Br)=CC2(C=C1Br)CCNC1=C2C(=O)c2ncccc2C1=O
Second: O=C(Cn1c2ccc(Br)cc2c2nc3ccccc3nc21)NNC(=S)NC1CCCCC1
The TGI of the first is 13-fold lower: 3.3 µM for the first, 43.1 µM for the second.

Going from CCCCC1Cc2cc(O)ccc2-c2nc3cc(O)ccc3n21 (centres undefined) (tested in a mixture with another compound) to O=C1/C(=C\c2cccc(Oc3ccccc3)c2)S(=O)(=O)C(c2ccccc2)N1c1cccc(Cl)c1 (centres undefined), the TGI rises from 51.9 µM to greater than 100 µM.

Compared with CCCCCCCCCCCC(=O)OC[C@@H](C[As](=O)(O)O)OC(=O)CCCCCCCCCCC, CC(=O)Nc1c(C(=N)C#N)ncn1CCO is higher in TGI: 28.8 µM for the first, greater than 100 µM for the second.

CN1CCc2c(sc3[nH]c(=S)[nH]c(=S)c23)C1 and CN1CCCOC(c2ccc(Cl)cc2)O1 (centres undefined) cannot be ordered by TGI: greater than 100 µM for the first, greater than 100 µM for the second.

CC(=O)c1ccc2c(c1)C(=O)c1sc(C(C)=O)cc1C2=O was tested, and the TGI was 3.43 µM and 2.58 µM.

system: HCT-116 colon; assay: DTP human tumour cell line panel, 48 h

O=c1[nH]c2nc3ccccc3c(=O)n2/c1=C/c1cccs1 and Cc1c2ccc3ccccc3c2c[n+]2ccccc12 cannot be ordered by TGI: greater than 100 µM for the first, greater than 83.3 µM for the second.

Compared with O=C1c2c(Br)sc(Br)c2C(=O)C1(O)O, Cc1ccc2c(c1)CC1(Cc3cccc(C)c3C1=O)C2=O (centres undefined) is higher in TGI: 38.4 µM for the first, greater than 100 µM for the second.

First: O=C1CCSCCC(=O)Nc2ccccc2N1
Second: CC(=O)c1c(N=[N+]=[N-])c2cccc3c2n(c1=O)CCC3
The TGI of the first is higher: greater than 100 µM for the first, 33.5 µM for the second.

First: CC(=O)SC(C[N+](=O)[O-])c1ccc2c(c1)OCO2 (centres undefined)
Second: COc1ccc(C2c3cc4c(cc3OC(N3CCOCC3)C2C)OCO4)cc1 (centres undefined)
The TGI of the first is lower: 5.22 µM for the first, greater than 100 µM for the second.

Cc1ccc(CSC(N)=Nc2ccccc2)cc1C and CCOC(=O)CCC(NC(=O)C(Cc1ccccc1)NC(=O)OCc1ccccc1)C(=O)OCC (stereo not drawn) (Cbz-Phe-Glu(OEt)-OEt; configuration not given here) are the same in TGI: 32.1 µM for the first, 32.1 µM for the second.

C=C1CCCCCCCCC/C=C/1SCCCSC and CCOC(=O)CCC1(CCC(=O)OCC)CCCCCCCCC(CCC(=O)OCC)(CCC(=O)OCC)C(=O)C1=O cannot be ordered by TGI: greater than 100 µM for the first, greater than 100 µM for the second.

CCOc1cc(NC(C)=O)ccc1C(=O)NNS(=O)(=O)c1ccc(NC(C)=O)cc1 and CC(=O)OC(CCC1(C)OC1COc1ccc(CCNC(=O)C=C(C)C)cc1)C(C)(C)OC(C)=O (centres undefined) cannot be ordered by TGI: greater than 100 µM for the first, greater than 100 µM for the second.

Going from NCCCN(CCCN)CCc1cn(C(=O)c2ccccc2)cn1 to O=[N+]([O-])c1c(F)c(F)c2c(c1F)N(CCCCCl)c1ccccc1S2, the TGI falls from greater than 51.2 µM to 11.2 µM.

First: CC1(C)O[C@H]2OC(CO)C(N=[N+]=[N-])[C@H]2O1 (some centres undefined)
Second: Cc1ccnc2c1C(=O)C1=C(OC(C)(C)CC1O)C2=O (centres undefined)
The TGI of the first is higher: greater than 100 µM for the first, 9.98 µM for the second.

Going from O=C1C(Br)=CC2(C=C1Br)CCNC1=C2C(=O)c2ncccc2C1=O to O=C(Cn1c2ccc(Br)cc2c2nc3ccccc3nc21)NNC(=S)NC1CCCCC1, the TGI rises from 1.74 µM to 26.9 µM (15-fold).

Compared with CCCCC1Cc2cc(O)ccc2-c2nc3cc(O)ccc3n21 (centres undefined) (tested in a mixture with another compound), O=C1/C(=C\c2cccc(Oc3ccccc3)c2)S(=O)(=O)C(c2ccccc2)N1c1cccc(Cl)c1 (centres undefined) is higher in TGI: 27 µM for the first, greater than 100 µM for the second.

Going from CCCCCCCCCCCC(=O)OC[C@@H](C[As](=O)(O)O)OC(=O)CCCCCCCCCCC to CC(=O)Nc1c(C(=N)C#N)ncn1CCO, the TGI rises from 21.7 µM to greater than 100 µM.

CN1CCc2c(sc3[nH]c(=S)[nH]c(=S)c23)C1 and CN1CCCOC(c2ccc(Cl)cc2)O1 (centres undefined) cannot be ordered by TGI: greater than 100 µM for the first, greater than 100 µM for the second.

CC(=O)c1ccc2c(c1)C(=O)c1sc(C(C)=O)cc1C2=O gave a GI50 of 0.349 µM.

With CC(=O)c1ccc2c(c1)C(=O)c1sc(C(C)=O)cc1C2=O the TGI was 14.3 µM and 12.3 µM.

system: HOP-92 NSCLC; assay: DTP human tumour cell line panel, 48 h

O=c1[nH]c2nc3ccccc3c(=O)n2/c1=C/c1cccs1 and O=C1CCSCCC(=O)Nc2ccccc2N1 cannot be ordered by TGI: greater than 100 µM for the first, greater than 100 µM for the second.

O=C1c2c(Br)sc(Br)c2C(=O)C1(O)O and CC(=O)SC(C[N+](=O)[O-])c1ccc2c(c1)OCO2 (centres undefined) are within 1.5-fold of each other in TGI: 34.7 µM for the first, 34.6 µM for the second.

First: Cc1ccc(CSC(N)=Nc2ccccc2)cc1C
Second: CCOc1cc(NC(C)=O)ccc1C(=O)NNS(=O)(=O)c1ccc(NC(C)=O)cc1
The TGI of the first is lower: 45.7 µM for the first, greater than 100 µM for the second.

In the case of C=C1CCCCCCCCC/C=C/1SCCCSC, the TGI is reported as greater than 100 µM.
